Patent US8314082B2, “Stilbene derivatives for ADP-ribosyl cyclase inhibitors” (Industrial Cooperation Foundation Chonbuk National …, priority 2006, dated 2012)
Read-outs that look alike come from different tables or passages of the source.

Legend:
Format in all cases: cell-based
[1] = tested on: Ang II induced [Ca^2+]i increase in murine mesangial cells (MMCs); assay: Ang II-mediated [Ca2+]i increase in MMCs; conditions: Mus musculus, Mesangial cell
Procedure: Changes in [Ca^2+]i in MMCs were determined as described previously [Kim et al., Exp. Mol. Med. (2006)38:535-45]. Briefly, MMCs cultured on confocal dishes for 48 h at a concentration of 10^4 cells/dish were washed with Hank's balanced salt solution (HBSS) (2 mM CaCl2, 145 mM NaCl, 5 mM KCl, 1 mM MgCl2, 5 mM D-glucose, and 20 mM HEPES, pH 7.3) and then loaded with […] Fluo 3-AM (Molecular Probe, Eugene, Oreg.). Changes in Ca^2+ fluorescence were determined at 488 nm/530 nm (excitation/emission) by air-cooled argon laser system. [Ca^2+]i was calculated using a Kd of 325 nM for Fluo 3-AM by the method of Tsien et al. (1982).

[2] = tested on: Ang II induced cADPR production in murine mesangial cells (MMCs); assay: Ang II-induced intracellular cADPR concentration in MMCs; conditions: for IC50: Mus musculus, Mesangial cell, cADPR production induced by 150 nM Ang II, 90 s, MMCs, read-out: IC50([CADPR]i, uM) (means ± SEM)
Procedure: [cADPR]i was measured using a cyclic enzymatic assay as described previously [Graeff et al., Biochem. J. (2002)361:379-84]. Aplysia californica ADPR-cyclase was purified from […] according to the method described [Lee et al., Cell Regul. (1991)2:203-9]. Briefly, MMCs were treated with 0.3 ml of 0.6 M perchloric acid under sonication after Ang II treatment. Precipitates were removed by centrifugation at 20,000×g for 10 min. Perchloric acid was removed by mixing the aqueous sample with a solution containing 3 volumes of 1,1,2-trichlorotrifluoroethane to 1 volume of tri-n-octlyamine. After centrifugation for 10 min at 1500×g, the aqueous layer was collected and neutralized with 20 mM sodium phosphate (pH 8). To remove all contaminating nucleotides, the samples were incubated with the following hydrolytic enzymes overnight at 37° C.: 0.44 unit/ml nucleotide pyrophosphatase, 12.5 units/ml alkaline phosphatase, 0.0625 unit/ml NADase, and 2.5 mM MgCl2 in 20 mM sodium phosphate buffer (pH 8.0). Enzymes were removed by filtration using Centricon-3 filters. To convert cADPR to NAD^+, the samples (0.1 ml/tube) were incubated with […] of a cycling reagent containing 0.3 mg/ml Aplysia ADPR-cyclase, 30 mM nicotinamide, and 100 mM sodium phosphate (pH 8) at room temperature for 30 min. The samples were further incubated with the cycling reagent (0.1 ml) containing 2% ethanol, […] alcohol dehydrogenase, 20 mM resazurin, 10 mg/ml diaphorase, 10 mM riboflavin 5′-phosphate, 10 mM nicotinamide, 0.1 mg/ml BSA, and 100 mM sodium phosphate (pH 8.0) for 2 h at room temperature. An increase in the resorufin fluorescence was measured at 544 nm excitation and 590 nm emission using a fluorescence plate reader (Molecular Devices Corp., Spectra-Max GEMINI). Various known concentrations of cADPR were also included in the cycling reaction to generate a standard curve. […] Production of cADPR as well as later sustained Ca^2+ signal in response to Ang II was inhibited with different efficacy by these small molecules (Table 1). […] The order of IC50 was 4,4′-DAHB>resveratrol>azobenzene=piceatannol>2,2′-DAHB.

[3] = tested on: OKT3 induced cADPR production in Jurkat T cells; assay: OKT3-induced [cADPR]i in Jurkat T cells; conditions: pretreatment
Procedure: [cADPR]i was measured using a cyclic enzymatic assay as described previously [Graeff et al., Biochem. J. (2002)361:379-84]. Aplysia californica ADPR-cyclase was purified from […] according to the method described [Lee et al., Cell Regul. (1991)2:203-9]. Briefly, MMCs were treated with 0.3 ml of 0.6 M perchloric acid under sonication after Ang II treatment. Precipitates were removed by centrifugation at 20,000×g for 10 min. […] After centrifugation for 10 min at 1500×g, the aqueous layer was collected and neutralized with 20 mM sodium phosphate (pH 8). To remove all contaminating nucleotides, the samples were incubated with the following hydrolytic enzymes overnight at 37° C.: 0.44 unit/ml nucleotide pyrophosphatase, 12.5 units/ml alkaline phosphatase, 0.0625 unit/ml NADase, and 2.5 mM MgCl2 in 20 mM sodium phosphate buffer (pH 8.0). Enzymes were removed by filtration using Centricon-3 filters. […] An increase in the resorufin fluorescence was measured at 544 nm excitation and 590 nm emission using a fluorescence plate reader (Molecular Devices Corp., Spectra-Max GEMINI). […] Measurement of [cADPR]i in Jurkat T cells were determined as described above examples 5.

[4] = tested on: OKT3 induced [Ca^2+]i increase in Jurkat T cells; assay: OKT3-mediated [Ca2+]i increase in Jurkat T cells; conditions: pretreatment, even at 10 mM; OKT3 5 mg/ml
Procedure: Changes in [Ca^2+]i in Jurkat T cells were determined as described above examples 1.

[5] = later sustained Ca2+ signal induced by 150 nM Ang II, 300 s, read-out: IC50([Ca^2+]i, uM) (means ± SEM)

Row | IC50 [1, 5] | IC50 [2] | IC50 ([1]; Ang II, pretreatment, read-out: IC50 for block of the sustained Ca2+ signal) | Compound | effect on OKT3-mediated [cADPR]i [3] | effect on OKT3-mediated Ca2+ rise [4] | concentration at which cADPR production stimulated by Ang II is inhibited ([2]; MMC)
1 | 15 ± 1.5 µM | 16.5 ± 2.5 µM |  | Oc1ccccc1/N=N/c1ccccc1O [2,2′-DHAB, 2,2′-Dihydroxyazobenzene] | didn't inhibited | did not show any effects | 
2 | 0.0025 ± 0.0002 µM | 0.0025 ± 0.0003 µM | ~0.0025 µM | Oc1ccc(N=Nc2ccc(O)cc2)cc1 [4,4′-DHAB, 4,4′-Dihydroxyazobenzene] | didn't inhibited | did not show any effects | 5 nM
